Results taken from US6540995B1, “Encapsulated cells producing cytochrome P450” (priority 1996, dated 2003).

Columns and labels:
[1] = tested on: breast cancer cells transfected with the CYP2B1 gene; details: another study; cited from earlier work
[2] = tested on: breast cancer cells transfected with the CYP2B1 gene; details: another study; cited from earlier work; remark: listed apart in the source
[3] = after administration of the drug to patients (Wright et al. 1995); cited from earlier work

Description for CYP2B1 expressing cells: After five additional days the cells were trypsinised and an aliquot mixed with the same amount of 0.4% Giemsa in PBS, incubated for 1 min and the living cells counted.

| Compound | effect on CYP2B1 transfected breast cancer cells [1] | effect on tumours after implantation in nude mice [2] | sensitivity of CYP2B1 expressing cells compared with cells not expressing CYP2B1 (CYP2B1 expressing cells) | plasma drug concentrations [3] [µM] |
| --- | --- | --- | --- | --- |
| O=P1(N(CCCl)CCCl)NCCCO1 (stereo not shown) [cyclophosphamide] | cell killing | tumour regression | tenfold higher sensitivity |  |
| O=P1(NCCCl)OCCCN1CCCl (stereo not shown) [ifosfamide] |  |  |  | 100 to 500 |
